Data from patent US10519119B2, “Nicotinic acid derivatives, their preparation and the use thereof” (XIAMEN INSTITUTE OF RARE EARTH MATERIALS, priority 2017, dated 2019).

Experiments:
[1] = system: human lung cancer cell line A549; assay: MTT test of activity in inhibiting human lung cancer cell A549; assay type: cell-based; details: for IC50: Homo sapiens, A549 cells, MTT method, cultivation 24 h with drug, OD at 595 nm; for inhibitory activity on lung cancer cell line A549: statement in words
Method: (§1) The specific test process was as follows:
(§2) (1) The lung cancer cell line A549 was plated in a 96-well plate and cultured in 100 μL medium. Until the cells were grown to 90%, 1 μL of the drug (i.e., the above example compounds) was added to the wells, each drug was tested for 8 different concentrations (the initial concentration of the drug, 50 μM, 5 μM, 500 nM, 50 nM, 5 nM, […], respectively), and each concentration of drug was experimented in 3 wells. After cultivation for 24 h, 20 μL of the already formulated 5 mg/mL MTT solution was added to each well, and the medium was aspirated after 4 hours, 150 μL DMSO was added to each well and its optical density (OD) value was measured at a wavelength of 595 nm. The negative control was DMSO.
(§3) The IC50 value was calculated by GraphPad Prism5 software.

[2] = system: colorectal cancer cell line HCT-116; assay: MTT test of activity in inhibiting colorectal cancer cell line HCT-116; assay type: cell-based, human; details: for IC50: Homo sapiens, HCT-116 cells, MTT method, same procedure as A549; for inhibitory activity on colorectal cancer cell line HCT116: statement in words
Method: [The procedure below names another cell line; the source lists this cell line under the same test.] as §1, §2, §3

[3] = system: breast cancer cell line MCF-7; assay: MTT test of activity in inhibiting breast cancer cell line MCF-7; assay type: cell-based, human; details: for IC50: Homo sapiens, MCF7, MCF-7 cells, MTT method, same procedure as A549; for inhibitory activity on breast cancer cell line MCF-7: statement in words
Method: [The procedure below names another cell line; the source lists this cell line under the same test.] as §1, §2, §3

Structure (SMILES) | IC50 [1] [µM] | IC50 [2] [µM] | IC50 [3] [µM] | inhibitory activity on lung cancer cell line A549 [1] | inhibitory activity on colorectal cancer cell line HCT116 [2] | inhibitory activity on breast cancer cell line MCF-7 [3]
COc1ccc(-c2cc(COC(=O)c3ccc(C(F)(F)F)nc3)on2)cc1 [YP-63] | 154 | 287 | 132 | strong inhibitory activity | strong inhibitory activity | strong inhibitory activity
O=C(OCc1cc(-c2ccc(Br)cc2)no1)c1ccc(C(F)(F)F)nc1 [YP-73] | 207 |  | 43 | strong inhibitory activity | strong inhibitory activity | strong inhibitory activity
Cc1ccc(-c2cc(COC(=O)c3ccc(C(F)(F)F)nc3C)on2)cc1 [YP-78] | 198 | 72.5 | 160 | strong inhibitory activity | strong inhibitory activity | strong inhibitory activity

More lines, in order of falling IC50 [1], values ahead:

IC50 [1] [µM] | IC50 [2] [µM] | IC50 [3] [µM] | Structure (SMILES) | inhibitory activity on lung cancer cell line A549 [1] | inhibitory activity on colorectal cancer cell line HCT116 [2] | inhibitory activity on breast cancer cell line MCF-7 [3]
896 | 279 | 124 | Cc1nc(C(F)(F)F)ccc1C(=O)OCc1cc(-c2ccc(Cl)cc2)no1 [YP-89] | strong inhibitory activity | strong inhibitory activity | strong inhibitory activity
241 |  | 112 | O=C(OCc1cc(-c2ccc(Cl)cc2)no1)c1ccc(Oc2ccccc2)nc1 [YP-108] | strong inhibitory activity | strong inhibitory activity | strong inhibitory activity
187 |  |  | O=C(OCc1cc(-c2ccc(Cl)cc2)no1)c1cc(Cl)cnc1Cl [YP-51] | strong inhibitory activity | strong inhibitory activity | strong inhibitory activity
172 | 1640 | 149 | COc1ccc(-c2cc(COC(=O)c3cc(Cl)cnc3Cl)on2)cc1 [YP-44] | strong inhibitory activity | strong inhibitory activity | strong inhibitory activity
